Measurements published in ChEMBL document CHEMBL4840352 (J Med Chem, 2021).
Activity calls are given as the source filed them. No cut-off for these calls is given here.

Columns and labels:
[1] = system: Receptor-type tyrosine-protein kinase FLT3 (Homo sapiens), P36888 [UNDEFINED MUTATION]; assay: Induction of FLT3-ITD degradation in human MV4-11 cells measured upto 18 hrs by Western blot analysis; type: cell-based; conditions: time hrs <=18
[2] = system: MOLM-13; assay: Antiproliferative activity against human MOLM-13 cells incubated for 48 hrs by CCK-8 assay; type: functional, cell-based; conditions: MOLM-13, 48 h
[3] = target: Discoidin domain-containing receptor 2 (Homo sapiens) (UniProt Q16832); assay: Inhibition of DDR2 (unknown origin) at 1000 nM relative to control
[4] = system: MOLM-13; assay: Induction of apoptosis in human MOLM-13 cells at 10 nM after 48 hrs by Annexin-V/PI staining based flow cytometry; type: functional, cell-based
[5] = target: Maternal embryonic leucine zipper kinase (Homo sapiens) (UniProt Q14680); assay: Inhibition of MELK (unknown origin) at 1000 nM relative to control
[6] = target: Mitogen-activated protein kinase kinase kinase 14 (Homo sapiens) (UniProt Q99558); assay: Inhibition of NIK (unknown origin) at 1000 nM relative to control
[7] = target: Mitogen-activated protein kinase 1 (Homo sapiens) (UniProt P28482); assay: Inhibition of MAPK2 (unknown origin) at 1000 nM relative to control
[8] = target: Receptor tyrosine-protein kinase erbB-2 (Homo sapiens) (UniProt P04626); assay: Inhibition of HER2 (unknown origin) at 1000 nM relative to control
[9] = target: Mitogen-activated protein kinase 1 (Homo sapiens) (UniProt P28482); assay: Inhibition of ERK2 (unknown origin) at 1000 nM relative to control
[10] = system: MV4-11; assay: Induction of apoptosis in human MV4-11 cells at 10 nM after 48 hrs by Annexin-V/PI staining based flow cytometry; type: functional, cell-based
[11] = target: Aurora kinase A (Homo sapiens) (UniProt O14965); assay: Inhibition of AURORA-A (unknown origin) at 1000 nM relative to control
[12] = target: RAC-alpha serine/threonine-protein kinase (Homo sapiens) (UniProt P31749); assay: Inhibition of AKT1 (unknown origin) at 1000 nM relative to control
[13] = target: Glycogen synthase kinase-3 alpha (Homo sapiens) (UniProt P49840); assay: Inhibition of GSK3alpha (unknown origin) at 1000 nM relative to control
[14] = target: Tyrosine-protein kinase JAK3 (Homo sapiens) (UniProt P52333); assay: Inhibition of JAK3 (unknown origin) at 1000 nM relative to control
[15] = target: Casein kinase I isoform alpha-like (Homo sapiens) (UniProt Q8N752); assay: Inhibition of CK1A1 (unknown origin) at 1000 nM relative to control
[16] = target: CDK7/Cyclin H/MNAT1 (Homo sapiens) (UniProt P51946+P50613+P51948); assay: Inhibition of CDK7/cyclinH/MAT1 (unknown origin) at 1000 nM relative to control; type: protein-complex assay
[17] = target: Mast/stem cell growth factor receptor Kit (Homo sapiens) (UniProt P10721); assay: Inhibition of KIT (unknown origin) at 1000 nM relative to control
[18] = target: ALK tyrosine kinase receptor (Homo sapiens) (UniProt Q9UM73); assay: Inhibition of ALK (unknown origin) at 1000 nM relative to control
[19] = system: MV4-11; assay: Antiproliferative activity against human MV4-11 cells incubated for 48 hrs by CCK-8 assay; type: functional, cell-based; conditions: MV4-11, 48 h
[20] = target: Rho-associated protein kinase 1 (Homo sapiens) (UniProt Q13464); assay: Inhibition of ROCK1 (unknown origin) at 1000 nM relative to control
[21] = target: Proto-oncogene tyrosine-protein kinase Src (Homo sapiens) (UniProt P12931); assay: Inhibition of SRC (unknown origin) at 1000 nM relative to control
[22] = target: Serine/threonine-protein kinase 4 (Homo sapiens) (UniProt Q13043); assay: Inhibition of MST1 (unknown origin) at 1000 nM relative to control
[23] = target: Serine/threonine-protein kinase Chk2 (Homo sapiens) (UniProt O96017); assay: Inhibition of CHK2 (unknown origin) at 1000 nM relative to control
[24] = target: Mitogen-activated protein kinase kinase kinase kinase 1 (Homo sapiens) (UniProt Q92918); assay: Inhibition of HPK1 (unknown origin) at 1000 nM relative to control
[25] = target: Hepatocyte growth factor receptor (Homo sapiens) (UniProt P08581); assay: Inhibition of C-MET (unknown origin) at 1000 nM relative to control
[26] = target: Serine/threonine-protein kinase TBK1 (Homo sapiens) (UniProt Q9UHD2); assay: Inhibition of TBK1 (unknown origin) at 1000 nM relative to control
[27] = target: Mitogen-activated protein kinase 8 (Homo sapiens) (UniProt P45983); assay: Inhibition of JNK1 (unknown origin) at 1000 nM relative to control
[28] = target: Serine/threonine-protein kinase MARK1 (Homo sapiens) (UniProt Q9P0L2); assay: Inhibition of MARK1 (unknown origin) at 1000 nM relative to control

Mitogen-activated protein kinase 1 (Homo sapiens), sequence (P28482 whole entry): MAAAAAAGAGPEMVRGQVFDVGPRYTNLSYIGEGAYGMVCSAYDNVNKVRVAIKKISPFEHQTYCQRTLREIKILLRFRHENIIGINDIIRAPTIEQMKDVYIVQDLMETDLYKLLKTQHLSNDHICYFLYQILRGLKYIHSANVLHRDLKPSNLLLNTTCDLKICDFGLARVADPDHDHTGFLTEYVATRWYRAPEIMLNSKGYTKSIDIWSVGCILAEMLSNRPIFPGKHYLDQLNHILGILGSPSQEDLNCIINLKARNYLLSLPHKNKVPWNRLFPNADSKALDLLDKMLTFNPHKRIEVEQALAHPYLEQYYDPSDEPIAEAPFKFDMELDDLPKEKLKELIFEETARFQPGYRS
Receptor-type tyrosine-protein kinase FLT3 (Homo sapiens), P36888 [UNDEFINED MUTATION], sequence (P36888 whole entry, looked up, stated change not applied): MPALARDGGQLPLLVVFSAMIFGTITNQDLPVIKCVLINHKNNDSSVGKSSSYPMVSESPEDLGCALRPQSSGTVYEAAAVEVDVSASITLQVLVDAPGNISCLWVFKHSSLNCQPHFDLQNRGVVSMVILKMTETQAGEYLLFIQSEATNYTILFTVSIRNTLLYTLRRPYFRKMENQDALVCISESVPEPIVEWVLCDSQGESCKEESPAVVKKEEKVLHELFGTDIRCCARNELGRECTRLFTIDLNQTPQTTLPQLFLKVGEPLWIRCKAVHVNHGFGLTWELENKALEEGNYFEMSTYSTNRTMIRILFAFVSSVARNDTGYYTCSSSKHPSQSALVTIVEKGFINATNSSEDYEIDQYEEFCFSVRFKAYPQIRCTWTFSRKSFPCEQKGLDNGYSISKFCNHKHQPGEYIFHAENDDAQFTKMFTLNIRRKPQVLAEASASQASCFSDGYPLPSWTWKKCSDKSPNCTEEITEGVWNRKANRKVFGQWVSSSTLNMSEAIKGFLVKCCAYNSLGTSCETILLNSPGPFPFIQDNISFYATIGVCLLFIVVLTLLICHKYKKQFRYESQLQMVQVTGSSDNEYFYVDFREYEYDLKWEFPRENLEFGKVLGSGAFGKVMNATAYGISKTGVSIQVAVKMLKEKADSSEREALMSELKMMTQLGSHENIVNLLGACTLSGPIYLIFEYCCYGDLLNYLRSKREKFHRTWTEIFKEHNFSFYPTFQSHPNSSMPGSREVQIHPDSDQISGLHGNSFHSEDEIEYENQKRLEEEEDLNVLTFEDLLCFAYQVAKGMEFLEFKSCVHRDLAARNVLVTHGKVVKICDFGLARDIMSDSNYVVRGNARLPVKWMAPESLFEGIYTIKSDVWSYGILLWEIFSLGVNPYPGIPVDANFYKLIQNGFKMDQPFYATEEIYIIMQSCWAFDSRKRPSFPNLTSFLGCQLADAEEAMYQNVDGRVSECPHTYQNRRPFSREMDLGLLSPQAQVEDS
Serine/threonine-protein kinase Chk2 (Homo sapiens), sequence (O96017 whole entry): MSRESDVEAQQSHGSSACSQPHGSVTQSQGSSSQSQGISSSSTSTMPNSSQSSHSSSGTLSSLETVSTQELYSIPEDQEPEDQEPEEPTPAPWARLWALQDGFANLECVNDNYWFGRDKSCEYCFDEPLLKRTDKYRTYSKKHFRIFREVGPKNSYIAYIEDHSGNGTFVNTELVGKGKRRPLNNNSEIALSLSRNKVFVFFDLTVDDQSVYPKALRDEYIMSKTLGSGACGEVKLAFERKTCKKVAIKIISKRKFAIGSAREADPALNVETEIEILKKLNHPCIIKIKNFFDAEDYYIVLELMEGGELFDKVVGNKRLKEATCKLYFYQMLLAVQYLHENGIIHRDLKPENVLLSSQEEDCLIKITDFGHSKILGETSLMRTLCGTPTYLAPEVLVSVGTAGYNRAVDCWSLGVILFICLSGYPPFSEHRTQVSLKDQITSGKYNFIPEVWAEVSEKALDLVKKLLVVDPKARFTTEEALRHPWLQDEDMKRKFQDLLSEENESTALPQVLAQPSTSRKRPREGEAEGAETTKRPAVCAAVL
ALK tyrosine kinase receptor (Homo sapiens), sequence (Q9UM73 19-1620 limits assumed): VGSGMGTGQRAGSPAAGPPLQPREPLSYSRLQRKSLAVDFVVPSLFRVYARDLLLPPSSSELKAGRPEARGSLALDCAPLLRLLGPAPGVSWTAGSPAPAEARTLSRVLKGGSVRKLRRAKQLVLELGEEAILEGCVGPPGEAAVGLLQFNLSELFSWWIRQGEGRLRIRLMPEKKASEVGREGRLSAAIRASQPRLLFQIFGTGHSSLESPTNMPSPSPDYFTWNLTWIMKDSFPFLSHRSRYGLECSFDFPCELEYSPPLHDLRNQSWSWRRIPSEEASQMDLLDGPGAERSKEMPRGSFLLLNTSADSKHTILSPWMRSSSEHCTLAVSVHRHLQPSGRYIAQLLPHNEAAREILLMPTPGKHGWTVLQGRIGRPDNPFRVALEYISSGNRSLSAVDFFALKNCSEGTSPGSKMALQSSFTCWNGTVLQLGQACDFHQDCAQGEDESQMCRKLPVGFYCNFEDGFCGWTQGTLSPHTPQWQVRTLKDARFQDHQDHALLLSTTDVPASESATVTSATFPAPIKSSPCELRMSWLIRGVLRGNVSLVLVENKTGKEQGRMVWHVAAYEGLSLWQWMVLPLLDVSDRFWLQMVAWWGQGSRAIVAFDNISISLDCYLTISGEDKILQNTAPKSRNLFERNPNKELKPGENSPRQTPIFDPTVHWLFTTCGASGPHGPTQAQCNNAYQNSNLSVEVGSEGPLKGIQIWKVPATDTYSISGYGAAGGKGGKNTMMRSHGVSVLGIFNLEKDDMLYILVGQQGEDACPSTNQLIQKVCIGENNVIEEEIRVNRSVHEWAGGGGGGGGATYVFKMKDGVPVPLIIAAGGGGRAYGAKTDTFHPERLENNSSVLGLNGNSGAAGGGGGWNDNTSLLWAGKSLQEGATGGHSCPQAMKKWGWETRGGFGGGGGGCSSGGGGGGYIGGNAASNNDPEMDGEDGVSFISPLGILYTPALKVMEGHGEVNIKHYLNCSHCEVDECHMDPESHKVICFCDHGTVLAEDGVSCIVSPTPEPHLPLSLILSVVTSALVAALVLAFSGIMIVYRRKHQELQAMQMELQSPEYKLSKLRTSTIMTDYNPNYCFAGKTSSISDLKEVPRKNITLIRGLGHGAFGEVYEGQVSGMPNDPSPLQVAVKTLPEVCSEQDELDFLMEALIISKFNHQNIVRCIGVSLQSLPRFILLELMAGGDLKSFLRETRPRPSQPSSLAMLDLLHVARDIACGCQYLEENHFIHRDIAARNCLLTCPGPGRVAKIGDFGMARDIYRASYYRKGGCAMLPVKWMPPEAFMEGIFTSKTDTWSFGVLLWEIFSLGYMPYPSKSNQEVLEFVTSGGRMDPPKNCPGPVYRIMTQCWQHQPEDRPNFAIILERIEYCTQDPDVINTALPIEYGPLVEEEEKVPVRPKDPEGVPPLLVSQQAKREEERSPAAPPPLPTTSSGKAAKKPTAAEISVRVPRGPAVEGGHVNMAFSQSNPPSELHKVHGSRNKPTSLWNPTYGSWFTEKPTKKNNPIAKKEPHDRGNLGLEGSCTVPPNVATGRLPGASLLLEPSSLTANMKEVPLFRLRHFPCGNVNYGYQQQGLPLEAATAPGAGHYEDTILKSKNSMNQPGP
Rho-associated protein kinase 1 (Homo sapiens), sequence (Q13464 2-1354 limits assumed): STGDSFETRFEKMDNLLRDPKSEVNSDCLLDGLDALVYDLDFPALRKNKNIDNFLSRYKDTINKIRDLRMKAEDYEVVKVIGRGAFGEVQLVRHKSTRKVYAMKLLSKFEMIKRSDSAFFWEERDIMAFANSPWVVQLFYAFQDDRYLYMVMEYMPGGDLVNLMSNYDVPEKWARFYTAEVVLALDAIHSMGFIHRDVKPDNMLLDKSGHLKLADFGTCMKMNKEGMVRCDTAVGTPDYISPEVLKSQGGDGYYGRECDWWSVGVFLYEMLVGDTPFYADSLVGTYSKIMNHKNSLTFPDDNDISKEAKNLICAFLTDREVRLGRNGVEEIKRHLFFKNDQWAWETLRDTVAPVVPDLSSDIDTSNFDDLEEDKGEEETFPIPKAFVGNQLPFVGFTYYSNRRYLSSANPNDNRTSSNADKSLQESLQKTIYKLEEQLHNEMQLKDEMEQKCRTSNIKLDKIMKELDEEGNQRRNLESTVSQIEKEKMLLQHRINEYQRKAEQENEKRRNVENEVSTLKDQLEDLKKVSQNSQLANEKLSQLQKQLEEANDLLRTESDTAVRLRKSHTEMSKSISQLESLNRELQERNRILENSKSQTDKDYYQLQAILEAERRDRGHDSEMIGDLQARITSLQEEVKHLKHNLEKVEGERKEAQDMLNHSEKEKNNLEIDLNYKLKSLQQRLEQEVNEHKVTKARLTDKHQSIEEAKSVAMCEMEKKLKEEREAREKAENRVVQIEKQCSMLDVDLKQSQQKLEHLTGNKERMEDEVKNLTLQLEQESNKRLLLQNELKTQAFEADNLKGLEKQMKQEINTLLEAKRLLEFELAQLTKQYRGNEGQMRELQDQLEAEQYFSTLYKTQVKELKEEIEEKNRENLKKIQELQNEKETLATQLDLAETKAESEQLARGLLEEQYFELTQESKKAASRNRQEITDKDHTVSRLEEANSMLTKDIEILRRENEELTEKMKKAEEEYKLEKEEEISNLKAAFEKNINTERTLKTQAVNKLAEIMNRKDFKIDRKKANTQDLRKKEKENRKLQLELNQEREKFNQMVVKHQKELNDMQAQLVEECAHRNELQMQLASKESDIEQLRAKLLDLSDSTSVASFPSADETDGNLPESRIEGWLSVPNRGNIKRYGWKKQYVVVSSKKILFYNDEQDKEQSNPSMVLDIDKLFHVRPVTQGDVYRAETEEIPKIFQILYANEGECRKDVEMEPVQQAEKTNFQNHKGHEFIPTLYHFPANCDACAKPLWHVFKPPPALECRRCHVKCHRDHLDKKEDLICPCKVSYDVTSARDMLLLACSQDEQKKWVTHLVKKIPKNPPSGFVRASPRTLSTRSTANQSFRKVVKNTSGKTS

C[C@@H]1C[C@@H]([C@H](O)CC2CC(=O)NC(=O)C2)C(=O)[C@@H](C)C1
Activity [1]: inactive

CN1CCN(c2ccc3nc(-c4c(N)c5c(F)cccc5[nH]c4=O)[nH]c3c2)CC1 [DOVITINIB]
IC50 [2]: 795 nM
inhibition [3]: 38%
Activity [4]: inactive
inhibition [5]: 70%
inhibition [6]: 2%
inhibition [7]: 54%
inhibition [8]: 37%
inhibition [9]: 31%
Activity [10]: inactive
inhibition [11]: 38%
inhibition [12]: 4%
inhibition [13]: 20%
inhibition [14]: 54%
inhibition [15]: 10%
inhibition [16]: 85%
inhibition [17]: 98%
inhibition [18]: 55%
IC50 [19]: 184 nM
inhibition [20]: 23%
inhibition [21]: 79%
inhibition [22]: 82%
inhibition [23]: 25%
inhibition [24]: 94%
inhibition [25]: 14%
inhibition [26]: 64%
inhibition [27]: 33%
inhibition [28]: 57%
